Active and inactive are the calls of the source. The rule behind the calls is not given here.
target: Toxin B (TcdB) glycohydrolase, Clostridioides difficile 630; assay: TcdB glycohydrolase inhibitors, dose response, biochemical, cherry-pick, plate reader (AID 720512); details: recombinant TcdB glycohydrolase activity

| Structure (SMILES) | AC50 |
| --- | --- |
| O=C(c1ccccc1)c1coc2ccc(O)c(Cl)c12 | > 39 µM (inactive) |
| COc1ccc(-c2ccc3c(c2)[C@H]2[C@H](CCN2C(=O)C2CC2)[C@@H](CO)N3C)cc1 | > 39 µM (inactive) |
| ONC(=Nc1ccccc1Cl)c1ccccc1Cl | > 39 µM (inactive) |
| CCN(CC)CCCCN1c2ccccc2Sc2ccccc21 | > 39 µM (inactive) |
| CCCNC(=O)C[C@H]1CC[C@@H]2[C@@H](COc3ccc(NC(=O)c4ccc(Cl)cc4)cc3C(=O)N2C)O1 | > 39 µM (inactive) |
| CCCNC(=O)N1CC[C@@H]2[C@@H](CO)N(C)c3ccc(-c4ccccc4)cc3[C@@H]21 | > 39 µM (inactive) |
| Cc1ccc(C)c2c1cc(C)c1nnc(SCC(=O)NCc3ccc4c(c3)OCO4)n12 | > 39 µM (inactive) |
| CCC(=O)N1CC[C@@H]2[C@@H](CO)N(C)c3ccc(-c4ccccc4)cc3[C@@H]21 | > 42 µM (inactive) |
| COc1ccc(C(=O)/C=C/c2ccc(O)cc2)c2c1CC(O)C(C)(C)O2 (centres undefined) | > 39 µM (inactive) |

same assay, conditions: recombinant TcdB glycohydrolase activity, at 10 µM (top of the series)

| Structure (SMILES) | activity change, negative = inhibition |
| --- | --- |
| O=C1c2c(O)ccc(O)c2C(=O)c2c(NCCNCCO)ccc(NCCNCCO)c21 | inactive |

same assay, conditions: recombinant TcdB glycohydrolase activity, at 19.5 µM (top of the series)

| Structure (SMILES) | activity change, negative = inhibition |
| --- | --- |
| COc1cc(/C=C/C(=O)OCC(=O)c2ccc[nH]2)ccc1O | inactive |
| COc1ccccc1-n1c(CCC(=O)O)ccc1-c1ccccc1 | inactive |
| CCC(=O)Nc1ccc2c(c1)OC[C@H](C)N(C(=O)NC(C)C)C[C@H](C)[C@H](OC)CN(C)C2=O | inactive |
| O=C(/C=C/c1ccccc1)Nc1cccnc1Cl | inactive |
| CC(=O)Nc1ccc(N(C(=O)c2ccco2)C(C(=O)NC2CCCC2)c2cccs2)cc1 (centres undefined) | inactive |
| C/C(=N\NC(N)=S)c1ccc2c(c1)OCCO2 | inactive |
| COCC(=O)N1CC[C@@H]2[C@H]1c1cc(-c3ccccc3)ccc1N(C)[C@H]2CO | inactive |
| N#Cc1ccc(C(=O)N/N=C/c2cn(CC(=O)O)c3ccccc23)c(F)c1 | inactive |
| Cc1ccc(C(=O)Nc2ccc(O)cc2C(=O)O)cc1C | inactive |
| Cc1[nH]nc(-c2ccc(O)cc2O)c1Oc1ccccc1 | inactive |
| Cc1ccc(/C=C(\C#N)C(=O)Nc2ccccn2)o1 | inactive |
| COc1ccc(-c2cn3cc(C)ccc3n2)cc1F | inactive |
| CCOC(=O)c1ccc(-n2c(CCC(=O)O)ccc2-c2ccc(F)cc2)cc1 | inactive |
| COc1ccccc1/C=C/c1onc(C)c1S(=O)(=O)N1CCC(C(=O)NC2CCCCCC2)CC1 | inactive |
| CCCNC(=O)C1CCN(S(=O)(=O)c2c(C)noc2/C=C\c2ccc(OC)cc2)CC1 | inactive |
| O=C(CCC(=O)N1CCSc2ccccc21)Nc1cccc(F)c1 | inactive |
| CC(/C=N/n1c(-c2ccncc2)n[nH]c1=S)=C\c1ccco1 | inactive |
| COc1cc(/C=C(\C#N)C(=O)Nc2ccc3c(c2)OCCO3)ccc1O | inactive |
| O=c1c2ccccc2nc(/C=C/c2ccc(O)cc2)n1-c1ccccc1O | inactive |
| COc1ccc(N2CCN(CCNC(=O)Nc3cc(Cl)ccc3OC)CC2)cc1 | inactive |
| CC(C)CC(=O)N1CCN(Cc2ccc(Br)cc2)CC1 | inactive |
| Cc1ccccc1S(=O)(=O)N1CCCc2nc(C)c(C)cc21 | inactive |
| COc1ccc(C(NC(C)=O)c2cc(Cl)c3cccnc3c2O)cc1 (centres undefined) | inactive |
| O=C(COc1ccc2ccc(=O)oc2c1)NCCN1CCOCC1 | inactive |
| Cc1cc(C)nc(NC(N)=NCCc2ccccc2)n1 | inactive |
| COc1ccc(-c2csc(NC(=O)c3ccccc3F)c2C(=O)O)cc1 | inactive |
| O=S(=O)(Nc1ccc(O)cc1)c1cccc2cccnc12 | inactive |

| Structure (SMILES) | activity change, negative = inhibition |
| --- | --- |
| COc1cc2nncc(SC)c2cc1OC | inactive |
| O=C(NC(=S)NNC(=O)c1ccccc1F)c1cccnc1 | inactive |
| O=C(CN1C(=O)NC2(CCCc3ccccc32)C1=O)NCc1cccs1 (centres undefined) | inactive |
| O=C(CNS(=O)(=O)c1ccc([N+](=O)[O-])cc1)N/N=C\c1ccc(O)cc1 | inactive |
| CCCCn1c(N)c(N(CC)C(=O)c2cccs2)c(=O)[nH]c1=O | inactive |
| C/C(=N\OCC(=O)Nc1nc2ccccc2s1)c1ccccc1 | inactive |
| O=S(=O)(NC1CCCCCCC1)c1ccc(F)cc1 | inactive |
| COc1ccc(S(=O)(=O)N2CCOCC2)cc1NC(=O)COC(=O)c1[nH]c(C)c(C(C)=O)c1C | inactive |
| O=C(C[C@H]1CC[C@@H]2[C@H](COC[C@@H](O)CN2C(=O)c2ccccn2)O1)NC1CCC1 | inactive |
| COc1ccc(C2=NS(=O)(=O)N(C)C(C(=O)NCc3ccc4c(c3)OCO4)=C2)cc1OC | inactive |
| Cc1cc(N2CCCC2=O)cc(C)c1S(=O)(=O)Nc1c(C)nn(C)c1C | inactive |
| COc1ccc(C)cc1NC(=O)C(OC(=O)C1=NNC(=O)CC1)c1ccccc1 (centres undefined) | inactive |
| CNc1nc(C23CC4CC(CC(C4)C2)C3)cs1 | inactive |
| CC1(C)Cc2nc(Cl)c(C#N)cc2CO1 | inactive |
| Cc1ccc(S(=O)(=O)N2CC(CO)=CCC2c2ccccc2)cc1 (centres undefined) | inactive |
| O=C(CNS(=O)(=O)c1ccccc1)N/N=C/c1ccc(O)cc1 | inactive |
| Cc1cnc([N+](=O)[O-])n1CCOC(=O)NC(=O)c1ccc(F)cc1 | inactive |
| Cn1ncc(Cl)c1C(=O)N/N=C/c1cccc(OC2CSC2)c1 | inactive |
| C[C@@H]1CN([C@@H](C)CO)S(=O)(=O)c2ccc(-c3ccncc3)cc2O[C@@H]1CN(C)Cc1ccc(Oc2ccccc2)cc1 | inactive |
| Cc1ccccc1C(C(=O)NC1CCCCC1)N(C(=O)c1ccccn1)c1cccnc1 (centres undefined) | inactive |
| O=C(C[C@H]1C[C@H]2c3cc(NC(=O)c4ccc5c(c4)OCO5)ccc3O[C@H]2[C@@H](CO)O1)NCc1cccc(F)c1 | inactive |
| Cc1cccc(-n2c(=O)c3ccccc3n3c(=S)[nH]nc23)c1C | inactive |
| C[C@H]1CN([C@@H](C)CO)S(=O)(=O)c2ccc(-c3ccncc3)cc2O[C@@H]1CN(C)Cc1ccc(Oc2ccccc2)cc1 | inactive |
| Cc1ccc(C(=O)OCC(=O)c2cc(C)n(CC3CCCO3)c2C)cc1 (centres undefined) | inactive |
| N#CCCN(C(=O)COC(=O)c1cc(=O)c2ccccc2o1)c1ccccc1 | inactive |
| COc1ccc(C=NNC(=O)c2cc(C)oc2C)cc1O | inactive |
| O=c1[nH]c(CSc2nnc(Cc3ccccc3)o2)nc2ccccc12 | inactive |

| Structure (SMILES) | activity change, negative = inhibition |
| --- | --- |
| COc1ccc(C(=O)Nc2ccc3c(c2)C(=O)N(C)[C@@H]2CC[C@H](CC(=O)NCC4CC4)O[C@H]2CO3)cc1 | inactive |
| O=C(Nc1sc2c(c1C(=O)O)CCCC2)c1ccc(Cl)cc1 | inactive |
| Cc1ccccc1COc1ccc2oc(C)c(C(=O)O)c2c1 | inactive |
| Cc1ccc2c(c1)/C(=C/c1ccccc1C)C(=O)N2 | inactive |
| O=C(C[C@@H]1C[C@@H]2c3cc(NC(=O)c4ccc5c(c4)OCO5)ccc3O[C@@H]2[C@@H](CO)O1)NCc1cccc(F)c1 | inactive |
| CCOCC(=O)Nc1cc(Cl)ccc1C | inactive |
| O=c1c([N+](=O)[O-])cccn1Cc1ccc(F)cc1Cl | inactive |
| CCCc1cc(=O)oc2c3c(cc(OCC(=O)NCCCn4ccnc4)c12)OC(C)(C)CC3 | inactive |
| Nc1ccc(-c2nc3ccc(N)cc3o2)cc1 | inactive |
| NC(=O)CC(NC(=O)c1ccccc1)c1ccc(NCCc2ccc(F)cc2)c([N+](=O)[O-])c1 (centres undefined) | inactive |
| Cc1ccc2sc(NNC(=O)C3COc4ccccc4O3)nc2c1C (centres undefined) | inactive |
| CCOc1ccc(NC(=O)c2ccc(CC)s2)c([N+](=O)[O-])c1 | inactive |
| CCN1CCN(c2oc(-c3ccccc3C)nc2S(=O)(=O)c2ccccc2)CC1 | inactive |
| COc1cc(-c2n[nH]c(=S)n2/N=C/c2cccn2C)cc(OC)c1OC | inactive |
| CN1C(=O)c2cc(NC(=O)c3cccc(F)c3)ccc2OC[C@@H]2O[C@@H](CC(=O)NCC3CCCCC3)CC[C@H]21 | inactive |
| O=C(O)C1CCC(CN(Cc2cccc(Br)c2)C(=S)Nc2ccccc2F)CC1 (centres undefined) | inactive |
| Cc1ccc(CNCCCn2cnc(C(=O)Nc3ccc(C)c(C)c3)n2)o1 | inactive |
| S=c1[nH]nc2ccccn12 | inactive |
| COCC(=O)N1CC[C@@H]2[C@@H](CO)N(C)c3ccc(-c4ccccc4)cc3[C@@H]21 | inactive |
| O=C(CC(c1ccccc1)c1ccccc1)Nc1ccc(O)cc1 | inactive |
| CN(C)c1ccc(/C=C/c2cccc[n+]2[O-])cc1 | inactive |
| Cc1ccc(C(=O)COC(=O)c2cc(=O)[nH]c3ccccc23)cc1 | inactive |
| FC(F)(F)c1cc(Cl)c2nc(-c3ccccc3)c(Cc3ccsc3)n2c1 | inactive |
| O=C(CCNC(=O)c1ccccc1Cl)N/N=C\c1ccc(O)cc1 | inactive |
| O=C(N[C@@H](Cc1c[nH]c2ccccc12)C(=O)O)C1CCN(S(=O)(=O)c2cccs2)CC1 | inactive |
